Assay results: US4940716A, “2-amino-tetrahydro-isoquinolene derivatives and a process for the preparation thereof and pharmaceutical compositions containing same” (Chinoin Gyogyszer es Vegyeszeti Termekek Gyara Rt, priority 1987, dated 1990)

Assay: Salidiuretic screening test in rats (Lipschitz method modified by Kagawa and Kalm), 5 mg/kg p.o.
Type: in vivo, rats (LATI CFY strain, male)
Settings: for K secretion, % of simultaneously measured control / Na secretion, % of simultaneously measured control / Water secretion, % of simultaneously measured control / secreted Na/K: single oral dose 5 mg/kg, rat; for Na/K ratio (in words) / secretion of urine amount and alkali metal ion: 5 mg/kg per os, rats; for secretion of urine amount and alkali metal ion: compared with dihydrochlorothiazide and furosemid
Experimental: Significant diuretic compounds containing an isoquinoline ring system have not been disclosed and therefore it is surprising that the compounds of the Formula (I) show a significant diuretic and saluretic activity. In a screening test carried out in rats (administered per os 5 mg/kg) the compounds according to the invention were compared with dihydrochlorothiazide and furosemid. […] Screen tests were carried out in masculine rats belonging to […] strain weighing at an average 240 g. The animals obtained standard rat nourishment. 16 hours before the experiment the animals were deprived of nourishment but the liquid uptake was not restricted. In order to show diuretic activity the procedure of Lipschitznek modified by Kagawa and Kalm was used. (Arch. Int. Pharmacodyn. 137, 241-249 (1962). The animals were placed into a metabolism cage. The urine collection was carried out in 0-6 and 0-24 hour periods. The control animals were administered 25 cm^3 /kg physiological salt solution through a gastric tube. The test substance was administered to the animals through a gastric tube at a dose of 5 mg/kg in physiological salt solution of an amount corresponding to the amount of physiological salt solution given to the control animals. After 6 hours the animals were administered the same volume of physiological saline solution as the volume excreted with 0-6 hours through a gastric tube. The amount of secreted urine between 0 to 6 and 0 to 24 hours was measured and calculated together with the concentration of sodium and potassium and the Na/K ratio of the urine secreted within a given period. Simultaneously with each test control groups treated with physiological salt solution and hypothiazide were used. Effect of a single oral dose of 5 mg/kg of the compouns on the secretion of water, sodium and potassium within 0-6 and 0-24 hours in the % of the simultaneously measured control values and on the secreted Na/K.

Row | Structure (SMILES) | K secretion, % of simultaneously measured control (0-6 h) [%] | Na secretion, % of simultaneously measured control (0-6 h) [%] | Water secretion, % of simultaneously measured control (0-6 h) [%] | secreted Na/K (0-6 h, control 1.81) | K secretion, % of simultaneously measured control (0-24 h) [%] | Na secretion, % of simultaneously measured control (0-24 h) [%] | Water secretion, % of simultaneously measured control (0-24 h) [%] | secreted Na/K (0-24 h, control 2.45) | Na/K ratio (in words) | secretion of urine amount and alkali metal ion
1 | NS(=O)(=O)c1cc(C(=O)NN2CCc3ccccc3C2)ccc1Cl [Example 1, 2-[(3'-sulfamoyl-4'-chloro)-benzoyl]-amino-1,2,3,4-tetrahydro-isoquinoline] | 145 | 260 | 216 | 9.09 | 82 | 152 | 148 | 5.94 | favorable | particularly advantageous
2 | CC1c2ccccc2CCN1NC(=O)c1ccc(Cl)c(S(N)(=O)=O)c1 (stereo not drawn) [Example 2, 1-methyl-2-[(3'-sulfamoyl-4'-chloro)-benzoyl]-amino-1,2,3,4-tetrahydro-isoquinoline] | 170 | 279 | 233 | 7.56 | 100 | 151 | 154 | 5.38 | favorable | particularly advantageous
3 | COc1cc2c(cc1OC)C(C)N(NC(=O)c1ccc(Cl)c(S(N)(=O)=O)c1)CC2 (stereo not drawn) [Example 3, 1-methyl-2-[(3'-sulfamoyl-4'-chloro-benzoyl)-amino]-6,7-dimethoxy-1,2,3,4-tetrahydro-isoquinoline-monohydrate] | 104 | 186 | 147 | 4.74 | 84 | 121 | 112 | 3.99 | – | –
4 | NS(=O)(=O)c1cc2c(cc1Cl)NCNS2(=O)=O [Hypothiazide, reference compound] | 117 | 187 | 159 | 3.90 | 109 | 123 | 119 | 3.50 | – | –
